The results in this text go back to PubChem BioAssay (NCI).

Some test systems named below: ACHN renal; HCC-2998 colon; HCT-15 colon; HT29 colon; IGROV1 ovarian; NCI-H522 lung; OVCAR-8 ovarian; RPMI-8226 leukemia; NCI/ADR-RES ovarian.
Common to all, as to test: NCI anticancer screen, dose series, 48 h

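Following 48 hours of exposure in 96-well plates, responses at five concentrations were used to interpolate endpoints linearly. GI50 is the concentration that inhibits growth by half. TGI is the concentration that stops growth completely.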 Some results are limits rather than exact numbers.

On to `CCOc1ccccc1NC(=O)CCC(=O)OC`, for which the TGI with ACHN renal, in the experiment on HCC-2998 colon, in the experiment with HCT-15 colon, in the experiment on HT29 colon, in the experiment with IGROV1 ovarian and in the experiment on NCI-H522 lung was > 100 µM in each case. For the same compound, the TGI in the experiment with OVCAR-8 ovarian was > 100 µM; with RPMI-8226 leukemia, > 71.3 µM.
For `O=C(O)CN(c1ccccc1)S(=O)(=O)c1ccc(NC(=O)c2ccccc2)cc1`, the TGI in the experiment on ACHN renal, in the experiment with HCT-15 colon, with IGROV1 ovarian, with NCI-H522 lung, in the experiment on OVCAR-8 ovarian and in the experiment with RPMI-8226 leukemia was > 100 µM each time.
Regarding `N#C/C(=C\c1ccccc1O)C(N)=O`, the TGI in the experiment on ACHN renal, with HCC-2998 colon, with HCT-15 colon, with HT29 colon, in the experiment with IGROV1 ovarian and in the experiment on NCI-H522 lung was > 100 µM each time. In addition, the TGI in the experiment on OVCAR-8 ovarian and with RPMI-8226 leukemia was > 100 µM each time.
With `Cc1ccc(C(=O)O/N=C2/CCCC/C2=C\c2ccccc2)cc1`, the TGI was > 100 µM with ACHN renal; > 100 µM with HCC-2998 colon; > 100 µM with HCT-15 colon; > 100 µM with HT29 colon; > 100 µM in the experiment with IGROV1 ovarian; 31.7 µM with NCI-H522 lung. Also, the TGI in the experiment on OVCAR-8 ovarian and in the experiment with RPMI-8226 leukemia was > 100 µM each time.
On to `CC1=CC2CC(C)=C(CC[C@]3(C)CC[C@H]([C@@H](C)C(=O)O)OO3)C(C)(C)C2CC1` (stereo not given in full), for which the TGI in the experiment on ACHN renal turned out to be 2.64 µM; with HCC-2998 colon, 0.818 µM; with HCT-15 colon it was 2 µM; in the experiment on HT29 colon, 0.429 µM; with IGROV1 ovarian, 0.453 µM; in the experiment on NCI-H522 lung, 0.383 µM. Also, the TGI with OVCAR-8 ovarian stood at 1.31 µM.
On to `NNC(=S)N/N=C(\CCCC(=O)NCCc1ccccc1)CC(=O)c1ccccc1`, for which the TGI with ACHN renal, in the experiment on HCC-2998 colon, with HCT-15 colon, in the experiment with HT29 colon, with IGROV1 ovarian and in the experiment on NCI-H522 lung was > 100 µM in each case. Besides, the TGI in the experiment on OVCAR-8 ovarian is > 100 µM.
Consider `CN1C(=O)c2c(ccc3c2OCO3)C2C(O)Cc3cc4c(cc3C21)OCO4` (stereo not given), for which the TGI was > 100 µM in the experiment on ACHN renal; 64.4 µM with HCC-2998 colon; 24.7 µM in the experiment on HCT-15 colon; 10.1 µM in the experiment on HT29 colon; 8.85 µM in the experiment with IGROV1 ovarian; 9.28 µM with NCI-H522 lung. In addition, the TGI with NCI/ADR-RES ovarian is 8.28 µM; in the experiment with OVCAR-8 ovarian, 22.9 µM; in the experiment with RPMI-8226 leukemia, > 100 µM.
Turning to `O=C1OC(=O)c2c1c(-c1ccccc1)cn2-c1ccc(Cl)cc1`, the TGI in the experiment with ACHN renal, in the experiment on HCC-2998 colon, in the experiment on HCT-15 colon, in the experiment on HT29 colon, in the experiment with IGROV1 ovarian and with NCI-H522 lung was > 100 µM throughout. The TGI in the experiment with OVCAR-8 ovarian and in the experiment on RPMI-8226 leukemia was > 100 µM throughout.
Take `Cc1cccc(C(=O)c2cccc3ccccc23)c1C(=O)O`: the TGI in the experiment with ACHN renal, with HCT-15 colon, in the experiment on HT29 colon, in the experiment on IGROV1 ovarian, with NCI-H522 lung and in the experiment with OVCAR-8 ovarian was > 100 µM in each case. Besides, in the experiment with RPMI-8226 leukemia, the TGI is > 100 µM.
Take `COC(=O)Cc1cc(OC)c(OC)cc1Br`: the TGI in the experiment with ACHN renal, in the experiment on HCC-2998 colon, in the experiment on HT29 colon, with NCI-H522 lung, in the experiment with OVCAR-8 ovarian and in the experiment with RPMI-8226 leukemia was > 100 µM throughout.
With `COc1cc2c(cc1O)C=NCC2`, the TGI with ACHN renal, in the experiment on HCT-15 colon, with IGROV1 ovarian, in the experiment on NCI-H522 lung, in the experiment on OVCAR-8 ovarian and in the experiment with RPMI-8226 leukemia was > 100 µM throughout.
For the compound `c1ccc(SC2(Sc3ccccc3)CCCC2)cc1`, the TGI in the experiment on ACHN renal, in the experiment on HCT-15 colon, in the experiment with NCI-H522 lung, with OVCAR-8 ovarian and in the experiment with RPMI-8226 leukemia was > 100 µM in each case.
`CCC1(C)NN=c2s/c(=C/c3ccc(OC)cc3)c(=O)n2N1` (stereo not given): the TGI in the experiment with ACHN renal, with HCC-2998 colon, with HT29 colon, in the experiment on IGROV1 ovarian, in the experiment on NCI-H522 lung and in the experiment on OVCAR-8 ovarian was > 100 µM in each case.
As for `CCC[CH2][Sn]([CH2]CCC)([O]C(=O)c1c(F)cccc1F)[O]C(=O)c1c(F)cccc1F`, the GI50 with ACHN renal is 0.763 µM; in the experiment on HCC-2998 colon it was 1.18 µM; with HCT-15 colon, 1.09 µM; with HT29 colon, 1.52 µM; with IGROV1 ovarian, 1.39 µM; with NCI-H522 lung, 0.0905 µM. For the same compound, in the experiment with OVCAR-8 ovarian, the GI50 is 1.18 µM. The TGI in the experiment on ACHN renal is 2.01 µM; with HCC-2998 colon, 2.41 µM; in the experiment on HCT-15 colon, 2.28 µM; in the experiment with HT29 colon, 2.87 µM; in the experiment on IGROV1 ovarian, 3 µM; in the experiment with NCI-H522 lung, 0.213 µM. In the experiment with OVCAR-8 ovarian, this compound returned a TGI of 2.41 µM.
For `O=C(O)c1ccccc1Cc1ccco1`, the TGI in the experiment with ACHN renal, in the experiment on HCC-2998 colon, in the experiment on HCT-15 colon, in the experiment on HT29 colon, with IGROV1 ovarian and in the experiment on NCI-H522 lung was > 100 µM throughout. The TGI in the experiment on OVCAR-8 ovarian and with RPMI-8226 leukemia was > 100 µM each time.
With `FC(F)(F)C1(Cl)C(c2ccccc2)=C1c1ccccc1`, the TGI was 30.2 µM in the experiment on ACHN renal; 31.8 µM with HCC-2998 colon; 27.8 µM in the experiment with HCT-15 colon; 29.3 µM in the experiment with HT29 colon; 29.5 µM in the experiment on IGROV1 ovarian; 29.1 µM in the experiment on OVCAR-8 ovarian. In the experiment with RPMI-8226 leukemia, the TGI is > 100 µM.
